Measured values taken from the supplement of paper PMC10307832.

Experiments:
Test in all cases: relative viability (nuclei count vs DMSO), 5 days (fraction); higher = more cells survive
Trametinib + Luminespib = compound: CC(=O)Nc1cccc(-n2c(=O)n(C3CC3)c(=O)c3c(Nc4ccc(I)cc4F)n(C)c(=O)c(C)c32)c1 [Trametinib] + CCNC(=O)c1noc(-c2cc(C(C)C)c(O)cc2O)c1-c1ccc(CN2CCOCC2)cc1 [Luminespib] (partner 0.01 µM)
In short: (§1)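 Lung cancer cell lines in 1536-well plates got either a single drug or a fixed anchor-drug dose together with five library-drug doses (not always all listed) in √10 steps, by pin tool, on the day after seeding. Nuclei were counted after 5 days, and relative viability is the treated-to-vehicle ratio of nuclei counts. Values are medians of duplicate plates.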

Trametinib + Decitabine = compound: CC(=O)Nc1cccc(-n2c(=O)n(C3CC3)c(=O)c3c(Nc4ccc(I)cc4F)n(C)c(=O)c(C)c32)c1 [Trametinib] + Nc1ncn([C@H]2C[C@H](O)[C@@H](CO)O2)c(=O)n1 [Decitabine] (partner 2 µM)
In short: as §1

[1] = compound: CN1C=C(C2=CC=CC=C21)/C=C\3/C4=C(C=CC=N4)NC3=O + CC(=O)Nc1cccc(-n2c(=O)n(C3CC3)c(=O)c3c(Nc4ccc(I)cc4F)n(C)c(=O)c(C)c32)c1 [Trametinib] (partner 0.02 µM)
In short: as §1

[2] = compound: CN1C=C(C2=CC=CC=C21)/C=C\3/C4=C(C=CC=N4)NC3=O + Nc1ncn([C@H]2C[C@H](O)[C@@H](CO)O2)c(=O)n1 [Decitabine] (partner 2 µM)
In short: as §1

| Cell Line | relative viability (Trametinib + Luminespib; first compound 0.0025 µM) | relative viability (Trametinib + Luminespib; first compound 0.007906 µM) | relative viability (Trametinib + Luminespib; first compound 0.025 µM) | relative viability (Trametinib + Luminespib; first compound 0.07906 µM) | relative viability (Trametinib + Luminespib; first compound 0.25 µM) | relative viability (Trametinib + Decitabine; first compound 0.0025 µM) | relative viability (Trametinib + Decitabine; first compound 0.007906 µM) | relative viability (Trametinib + Decitabine; first compound 0.025 µM) | relative viability (Trametinib + Decitabine; first compound 0.07906 µM) | relative viability (Trametinib + Decitabine; first compound 0.25 µM) | relative viability ([1]; first compound 0.02 µM) | relative viability ([1]; first compound 0.06325 µM) | relative viability ([1]; first compound 0.2 µM) | relative viability ([1]; first compound 0.6325 µM) | relative viability ([1]; first compound 2 µM) | relative viability ([2]; first compound 0.02 µM) | relative viability ([2]; first compound 0.06325 µM) | relative viability ([2]; first compound 0.2 µM) | relative viability ([2]; first compound 0.6325 µM) | relative viability ([2]; first compound 2 µM) |
| --- | --- | --- | --- | --- | --- | --- | --- | --- | --- | --- | --- | --- | --- | --- | --- | --- | --- | --- | --- | --- |
| NCI-H2347 | 0.513 | 0.254 | 0.205 | 0.208 | 0.303 | 0.521 | 0.514 | 0.395 | 0.358 | 0.397 | 0.246 | 0.271 | 0.296 | 0.319 | 0.274 | 0.563 | 0.552 | 0.588 | 0.582 | 0.608 |
| LCLC-103H | 0.769 | 0.761 | 0.735 | 0.767 | 0.668 | 0.754 | 0.68 | 0.692 | 0.689 | 0.596 | 0.645 | 0.691 | 0.718 | 0.667 | 0.681 | 0.724 | 0.732 | 0.684 | 0.696 | 0.732 |
| NCI-H650 | 0.862 | 0.828 | 0.659 | 0.578 | 0.375 | 0.346 | 0.294 | 0.345 | 0.301 | 0.261 | 0.928 | 0.943 |  | 0.942 | 0.907 | 0.316 | 0.338 |  | 0.293 | 0.188 |
| NCI-H1975 | 0.207 | 0.177 | 0.155 | 0.183 | 0.171 | 0.332 | 0.336 | 0.345 | 0.261 | 0.278 | 0.32 | 0.237 | 0.323 | 0.326 | 0.271 | 0.396 | 0.277 | 0.356 | 0.363 | 0.347 |
| NCI-H2126 | 0.871 | 0.754 | 0.509 | 0.731 | 0.564 | 0.574 | 0.558 | 0.514 | 0.535 | 0.523 | 0.558 | 0.55 | 0.564 | 0.212 | 0.506 | 0.631 | 0.585 | 0.569 | 0.536 | 0.508 |
| NCI-H2087 | 0.17 | 0.137 | 0.137 | 0.141 | 0.148 | 0.207 | 0.203 | 0.148 | 0.117 | 0.125 | 0.149 | 0.208 | 0.153 | 0.189 | 0.215 | 0.227 | 0.239 | 0.255 | 0.326 | 0.363 |
